According to US11884750B2, “Cationic cell penetrating peptides and the use thereof” (CELLTROY CO., LTD., priority 2021, dated 2024):
Entries after “also recorded” stand apart in the source; their conditions may differ.

Tests used:
HGB cell line = experiment: Cell penetration efficiency in glioblastoma cells; format: cell-based, human; conditions: 4 μM FITC-conjugated CPP, one hour
Method: (§1) Subsequently, to confirm whether the CPPs according to the present invention show excellent cell permeability into different types of cells/tissues, various tissue-derived cells were treated with biologically active molecule-conjugated CPPs to compare its delivery capacity with TAT. As in the previous examples, each cell was aliquoted in a plate at an appropriate density, and cultured in a 10% FBS-added medium under a condition of 37° C. and 5% CO2 for 24 hours. Subsequently, the cells were treated with 4 μM each of FITC-conjugated CPP or FITC-conjugated TAT and incubated for one hour. After the completion of the incubation, the cells were transferred to a sterile tube using 0.25% trypsin and centrifuged to remove the medium. Afterward, the cells were washed with 500 μL of D-PBS twice to completely remove the medium, and finally, resuspended in 400 μL of D-PBS and intracellular fluorescence was measured by flow cytometry (FACSCanto II).

HepG2 cell line = experiment: Cell penetration efficiency using liver cells; format: cell-based; conditions: 4 μM FITC-conjugated CPP, one hour
Method: as §1

A-427 cell line = experiment: Cell penetration efficiency using lung cells; format: cell-based; conditions: A-427 lung cells, 4 μM FITC-conjugated CPP, one hour
Method: as §1

HeLa cell line = experiment: Cell penetration efficiency using cervical cancer cells; format: cell-based; conditions: 4 μM FITC-conjugated CPP, one hour
Method: as §1

HaCAT cells = experiment: Cell penetration efficiency in human epidermal (skin) cells, 4 μM, flow cytometry; format: cell-based; conditions: 4 μM FITC-conjugated CPP, one hour
Method: The cell penetration efficiency of the cationic CPPs selected in Example 1 was evaluated using human epidermal cells. In further detail, HaCAT cells, which is a human epidermal cell line, were seeded in 24-well plates to have a cell density of 1×10^7 cells/well, and cultured in 10% FBS-added DMEM under conditions of 37° C. and 5% CO2 for 24 hours. Subsequently, the cells were treated 4 μM each of the FITC-conjugated CPP or FITC-conjugated TAT, and incubated for one hour. After the termination of the incubation, the cells were transferred to a sterile tube using 0.25% trypsin, and the medium was removed through centrifugation. Afterward, the cells were washed with 500 μL of D-PBS twice to completely remove the medium, and finally, resuspended in 400 μL of D-PBS and intracellular fluorescence was measured by flow cytometry (FACSCanto II).
(§2) To evaluate the cell penetration efficiency of the additionally selected cationic CPPs, an experiment was conducted using human epidermal cells or human neuroblastoma cells. In further detail, HaCAT cells, which is a human epidermal cell line, or SH-SYSY cells, which is a human neuroblastoma cell line, were seeded in 24-well plates to have a cell density of 1×10^7 cells/well and cultured in 10% FBS-added DMEM under conditions of 37° C. and 5% CO2 for 24 hours. In addition, the cells were treated with 4 μM each of FITC-conjugated peptides and FITC-conjugated TAT for one hour. After the completion of the culture, the cells were transferred to a sterile tube using 0.25% trypsin and centrifuged to remove the medium. Afterward, the cells were washed with 500 μL of D-PBS twice to completely remove the medium, and finally, resuspended in 400 μL of D-PBS and intracellular fluorescence was measured by flow cytometry (FACSCanto II).
as §1

HDF cell line = experiment: Cell penetration efficiency in skin cells (HDF); format: cell-based; conditions: 4 μM FITC-conjugated CPP, one hour
Method: as §1

SH-SY5Y cells = experiment: Cell penetration efficiency in human neuroblastoma cells, 4 μM, flow cytometry; format: cell-based; conditions: one hour; for cell permeability compared with TAT: 4 μM FITC-conjugated CPP, flow cytometry; for Score / Score/TAT: 4 μM FITC-conjugated peptide; for Score: intracellular fluorescence by flow cytometry; for Score/TAT: ratio to FITC-conjugated TAT
Method: The cell penetration efficiency of the cationic CPPs selected in Example 1 was evaluated in neuroblastoma. In further detail, SH-SYSY cells, which is a human neuroblastoma cell line, were seeded in 24-well plates to have a cell density of 1×10^7 cells/well, and cultured in 10% FBS-added DMEM under conditions of 37° C. and 5% CO2 for 24 hours. In addition, the cells were treated with 4 μM each of FITC-conjugated CPPs (C12, C14, C16, C31, C52, and C67), or FITC-conjugated TAT, and incubated for one hour. After the termination of the incubation, the cells were transferred to a sterile tube using 0.25% trypsin and centrifuged to remove the medium. Afterward, the cells were washed with 500 μL of D-PBS twice to completely remove the medium, and finally, resuspended in 400 μL of D-PBS and intracellular fluorescence was measured by flow cytometry (FACSCanto II).
as §2, §1

SNU-46 cell line = experiment: Cell penetration efficiency using laryngeal cells; format: cell-based; conditions: SNU-46 laryngeal cells, 4 μM FITC-conjugated CPP, one hour
Method: as §1

HT1080 cell line = experiment: Cell penetration efficiency using connective tissue (fibrosarcoma) cells; format: cell-based; conditions: 4 μM FITC-conjugated CPP, one hour
Method: as §1

HEK293T cell line = experiment: Cell penetration efficiency using kidney cells; format: cell-based; conditions: 4 μM FITC-conjugated CPP, one hour
Method: as §1

monocytes = experiment: Cell penetration efficiency using monocytes; format: cell-based; conditions: 4 μM FITC-conjugated CPP, one hour
Method: as §1

macrophages = experiment: Cell penetration efficiency using macrophages; format: cell-based; conditions: macrophages differentiated from THP1 cells, 4 μM FITC-conjugated CPP, one hour
Method: as §1, with “II). Macrophages were used by inducing differentiation from THP1 cells. Specifically, the THP-1 cells were aliquoted on a cover glass laid on a 24-well plate to have a density of 6×10^4 cells/well, and after the addition of 100 ng/mL of phorbol 12-myristate 13-acetate (PMA), the cells were incubated for 48 hours to induce the differentiation into macrophages. After 48 hours, the cells were washed with Dulbecco's phosphate buffered saline (DPBS) to perform an experiment.” for “II).”

| Sequence | cell permeability compared with TAT (HGB cell line) | cell permeability compared with TAT (HepG2 cell line) | cell permeability compared with TAT (A-427 cell line) | cell permeability compared with TAT (HeLa cell line) | cell permeability compared with TAT (HaCAT cells) | cell permeability compared with TAT (HDF cell line) | cell permeability compared with TAT (SH-SY5Y cells) | Score (SH-SY5Y cells) | Score/TAT (SH-SY5Y cells) | cell permeability compared with TAT (SNU-46 cell line) | cell permeability compared with TAT (HT1080 cell line) | cell permeability compared with TAT (HEK293T cell line) | cell permeability compared with TAT (monocytes) | cell permeability compared with TAT (macrophages) |
| --- | --- | --- | --- | --- | --- | --- | --- | --- | --- | --- | --- | --- | --- | --- |
| ALVLLRRRRRDRKP [C14] | higher cell permeability | higher cell permeability | higher cell permeability | higher cell permeability | increased cell permeability; also recorded: higher cell permeability | higher cell permeability | higher cell permeability | 1382 | 2.663 | higher cell permeability | higher cell permeability | higher cell permeability |  |  |
| KKRKKRRKKRKVDP [C67] | higher cell permeability | higher cell permeability | higher cell permeability | higher cell permeability | increased cell permeability | higher cell permeability | higher cell permeability | 2328 | 4.486 | higher cell permeability | higher cell permeability | higher cell permeability |  |  |
| KRKLKVRRKLREPR [C115] |  |  |  |  |  |  | higher cell permeability | 563 | 1.085 |  |  |  | higher cell permeability |  |
| KRRKLRIKRRIRVP [C208] |  |  |  | higher cell permeability | higher cell permeability | higher cell permeability | higher cell permeability | 1326 | 2.555 | higher cell permeability | higher cell permeability |  | higher cell permeability |  |
| LMPSKIRRRKKRKK [C85] |  |  |  |  | higher cell permeability | higher cell permeability | higher cell permeability | 798 | 1.538 | higher cell permeability | higher cell permeability |  | higher cell permeability | higher cell permeability |
| MKRLLKVVRRRRRP [C201] | higher cell permeability |  |  | higher cell permeability |  |  | higher cell permeability | 802 | 1.545 | higher cell permeability |  |  |  | higher cell permeability |
| RLRALVRRKQRARP [C82] |  |  | higher cell permeability |  | higher cell permeability |  | higher cell permeability | 628 | 1.210 |  | higher cell permeability |  | higher cell permeability |  |
| RPALKQRRWRRKKK [C117] | higher cell permeability |  | higher cell permeability | higher cell permeability | higher cell permeability | higher cell permeability | higher cell permeability | 936 | 1.803 | higher cell permeability | higher cell permeability |  | higher cell permeability |  |
| RPIRKLLRQARQRR [C131] | higher cell permeability |  |  | higher cell permeability |  | higher cell permeability | higher cell permeability | 790 | 1.522 |  |  |  | higher cell permeability |  |
| RPLVRRRLRRAVRR [C226] |  |  |  | higher cell permeability | higher cell permeability |  |  | 474 | 0.913 | higher cell permeability |  |  | higher cell permeability | higher cell permeability |
| RRALRRRAQRRGAP [C181] | higher cell permeability |  |  | higher cell permeability |  | higher cell permeability | higher cell permeability | 682 | 1.314 |  |  |  | higher cell permeability |  |
| RTRLLRRLRALKPR [C223] |  |  |  | higher cell permeability |  |  |  | 408 | 0.786 |  |  |  | higher cell permeability |  |
| YRPRRKKATKKLKR [C284] | higher cell permeability |  |  | higher cell permeability |  |  | higher cell permeability | 532 | 1.025 |  |  | higher cell permeability |  | higher cell permeability |
| YRPRRKKITKKLKR [C283] | higher cell permeability |  |  | higher cell permeability |  |  |  | 514 | 0.990 | higher cell permeability | higher cell permeability | higher cell permeability | higher cell permeability | higher cell permeability |
